Reference: patent US11241412B2 (priority 2015, dated 2022)
Values after ≈ are worked out from the molar mass of the structure shown. Values joined by “and” are separate entries in the source; they are usually repeats but may differ in a detail not shown here. Identical values can stand only once. Like-named read-outs stand apart in the source and are kept apart here.

Key:
[1] = Safety of tumescent drug delivery: subcutaneous infiltration of 20 ml tumescent solutions; settings: for ecchymosis / local tenderness upon palpation / stinging upon injection: subcutaneous TI, 20 ml, 6 of 6 subjects
Protocol: We studied 6 subjects over 6 days after subcutaneous infiltration of a 20 ml of tumescent solutions of acyclovir and 20 ml of tumescent gentamicin with 20 ml of subcutaneous normal saline and 20 ml of subcutaneous bacteriostatic saline as controls.

[2] = tested on: Staphylococcus aureus (MRSA) ATCC 33592; type: cell-based
Description: Determinations of MBC followed the method described in “Report on the Working Party on Antibiotic Sensitivity Testing of the British Society of Antimicrobial Chemotherapy: A Guide to Sensitivity Testing.”

[3] = tested on: Staphylococcus aureus (MRSA) ATCC 33592; settings: combined test product Lidocaine+Cefazolin
Protocol: (§1) Following inoculation, survival of test microorganisms was determined.

[4] = mixed together in a saline solution for IV delivery; 8° C.; cited from earlier work
[5] = tested on: Staphylococcus aureus (MRSA) ATCC 33592; test: microbe, parasite or virus in culture; settings: 24 h, read-out: MIC end point
Protocol: as §1

[6] = for adverse local or systemic effects after subcutaneous tumescent infiltration: dilute drug in TAD solution; for AUC / Cmax: Table 16B
Description: Five pharmacokinetic studies each involved one IVAD procedure and one or two TAD procedures or a concomitant TAD+IVAD procedure. […] The AUC∞ and Cmax with TAD and with IVAD were compared.
The protocol received institutional review board approval and written informed consent was obtained prior to each research procedure. We compared tumescent antibiotic delivery (TAD) and intravenous antibiotic delivery (IVAD) with respect to concentration-time profile, AUC∞, Cmax and T>MIC.
Only after a prospective patient had requested liposuction surgery was the person offered the opportunity to participate in this research. Volunteer subjects were offered liposuction at no cost.
Exclusion criteria were: current significant health problems, history or evidence of HIV or Hepatitis C infection and […] of drugs that block cytochrome P450 3A4 or 1A2 or impair hemostasis.
Each of the 5 studies consisted of one IV antibiotic delivery (IVAD) procedure and one or two TAD infiltration procedures. In individual subjects, procedures were performed at least one week apart.
Metronidazole for IV delivery is available as 500 mg in 100 ml.
The discomfort of tumescent infiltration was minimized by a sequential infiltration technique: first using a spinal needle to infiltrate a relatively small volume of TAD sufficient to provide minimal anesthesia to allow comfortable insertion of blunt-tipped 16 gauge tumescent infiltration cannulas that provide large volume infiltration. The spinal needle and blunt-tipped infiltration cannulas were inserted through the skin via 1 mm adits made by a 1 mm skin biopsy punch. All patients were fully awake and received no parenteral sedation.
Sample Collection: After […], only serum concentrations were measured. After TAD both serum and TISF concentrations were measured. IVAD was achieved via an antecubital vein. Serum samples were obtained via an indwelling IV catheter in the contralateral antecubital vein.
A two-syringe sampling technique first removed 2 mL of blood, which was discarded, and then 10 mL of blood was obtained in a second syringe for drug assay. After each blood sample the IV catheter was flushed with 2 ml of saline and then 0.5 mL of heparin (10 units/mL).
Sequential samples of tumescent adipose tissue (10 ml to 20 ml) were obtained by the hand-held syringe liposuction technique. Sampling began at time T0 immediately after completing TAD infiltration and continued every 1 to 2 hours until the subject experienced significant discomfort as the result of diminishing local anesthesia. Samples of the subcutaneous tissue aspirate were centrifuged. The supranatant fat was discarded.
Data Analysis: We recorded the effect of varying the mg dose and mg/L concentration of antibiotics within TAD solutions between procedures in individual subjects and between different subjects.
Linear regression analysis was used to determine the correlation (coefficient of determination R2) between the antibiotic concentration (mg/L) in a TAD solution and Cmax in the infranatant liposuctioned subcutaneous tissue TISF. After TAD and after IVAD, Cmax in serum was determined by inspection of the sequential assays. AUC∞ was determined by the trapezoid rule.
At the time when each sample of TISF was obtained, patients were examined and questioned about signs and symptoms of subcutaneous tissue toxicity including unusual soreness, tenderness, discoloration, swelling at sites of subcutaneous tumescent infiltration. […] One week after TAD patients were questioned by telephone about any signs and symptoms of subcutaneous tissue toxicity at the sites of TAD.

platelet function = test: Bleeding time and bleeding area before and after tumescent lidocaine exposure (Duke method); type: in vivo, human; settings: post-op tumescent lidocaine exposure
Protocol: The skin of the left and right thigh of a subject is cleaned and allowed to dry. […] Simultaneous 4 mm deep puncture wounds are made to the same area of the left and right thighs with disposable lancets. The puncture sites are blotted with filter paper every 30 seconds, until bleeding stops and the bleeding time for each thigh is recorded. The bleeding times of the left and right thigh are compared to determine if administration of TLAnti increases bleeding time. Normal bleeding time measured by the Duke method is 1 to 3 minutes.
In a preliminary experiment, bleeding time and bleeding area were measured in a patient before and after tumescent lidocaine exposure. […] In contrast, there was a 40% increase in Average Bleeding Area (BA). Bleeding Area (BA) was a more sensitive and a more specific test for platelet function compared to Bleeding Time (BT). […] In otherwords, TAD may reduce the risk of both post-operative surgical site infection and post-operative thromboembolism.

[7] = adults; TLA without liposuction
[8] = tested on: platelet aggregation induced by ADP, epinephrine and collagen; settings: cited from earlier work
human neutrophils = settings: cited from earlier work
[9] = commercial lidocaine (1%) with epinephrine (1:100,000); cited from earlier work
[10] = Abdomen, TISF, TAD, 172 mg/L, TAD dose 600 mg
[11] = Abdomen, serum, TAD, 172 mg/L, TAD dose 600 mg

**Q.** Which ecchymosis [1] does the source give for `Nc1nc2c(ncn2COCCO)c(=O)[nH]1` [Acyclovir] here?
**A.** no ecchymosis

**Q.** What about the “local tenderness upon palpation” value [1] of the same compound?
**A.** no local tenderness upon palpation

**Q.** And the stinging upon injection [1]?
**A.** no stinging upon injection

**Q.** With `Cc1nnc(SCC2=C(C(=O)O)N3C(=O)[C@@H](NC(=O)Cn4cnnn4)[C@H]3SC2)s1` [Cefazolin] as the compound, how does the “MRSA survival (MBC test)” value ([2]; 62.5 mg/L, Day 1, MRSA Inoculum 4.7 × 10^5 CFU/ml) read?
**A.** +

**Q.** And the “MRSA survival (MBC test)” value ([2]; 62.5 mg/L, Day 2, MRSA Inoculum 4.4 × 10^5 CFU/ml)?
**A.** +

**Q.** What about the “MRSA survival (MBC test)” value ([2]; 125 mg/L, Day 1, MRSA Inoculum 4.7 × 10^5 CFU/ml) of the same compound?
**A.** +

**Q.** What about the “MRSA survival (MBC test)” value ([2]; 125 mg/L, Day 2, MRSA Inoculum 4.4 × 10^5 CFU/ml) of the same compound?
**A.** +

**Q.** What about the “MRSA survival (MBC test)” value ([2]; 250 mg/L, Day 1, MRSA Inoculum 4.7 × 10^5 CFU/ml) of the same compound?
**A.** 0

**Q.** And the “MRSA survival (MBC test)” value ([2]; 250 mg/L, Day 2, MRSA Inoculum 4.4 × 10^5 CFU/ml)?
**A.** 0

**Q.** And the “potency of Cefazolin against MRSA in the presence of Lidocaine” value [3]?
**A.** not inhibited by the presence of Lidocaine

**Q.** And the “chemically stable for” value [4]?
**A.** at least 72 hours

**Q.** And the MIC [5]?
**A.** 125 µg/mL (≈ 275 µM)

**Q.** For `CNC[C@H](O)c1ccc(O)c(O)c1` [Epinephrine], which “adverse local or systemic effects after subcutaneous tumescent infiltration” value (from here on “adverse local or systemic effects”) [6] is on record?
**A.** no adverse local or systemic effects

**Q.** Which “MRSA survival (MBC test)” value ([2]; 1,000 mg/L, Day 1, MRSA Inoculum 4.7 × 10^5 CFU/ml) does the source give for `CCN(CC)CC(=O)Nc1c(C)cccc1C` [Lidocaine] here?
**A.** +

**Q.** What about the “MRSA survival (MBC test)” value ([2]; 1,000 mg/L, Day 2, MRSA Inoculum 4.4 × 10^5 CFU/ml) of the same compound?
**A.** +

**Q.** And the “MRSA survival (MBC test)” value ([2]; 5,000 mg/L, Day 2, MRSA Inoculum 4.4 × 10^5 CFU/ml)?
**A.** +

**Q.** And the “MRSA survival (MBC test)” value ([2]; 10,000 mg/L, Day 2, MRSA Inoculum 4.4 × 10^5 CFU/ml)?
**A.** 0

**Q.** What about the “Average Bleeding Area (BA)” value (platelet function; Patient 1 (control BA = 541)) of the same compound?
**A.** BA = 759

**Q.** What about the “Average Bleeding Time (BT)” value (platelet function; Patient 1 (control BT = 6)) of the same compound?
**A.** BT = 5.75

**Q.** What about the “Bleeding Time BT × 2” value (platelet function; Patient 1, single tests T3, T4) of the same compound?
**A.** 10 and 13

**Q.** What about the “adverse local or systemic effects” value [6] of the same compound?
**A.** no adverse local or systemic effects

**Q.** And the “maximum safe dosage (estimated)” value [7]?
**A.** 30 mg/kg

**Q.** What about the “lidocaine concentration that consistently inhibits in-vitro platelet aggregation” value ([8]; aggregation induced by ADP, epinephrine and collagen) of the same compound?
**A.** ≥ 0.5 mg/mL

**Q.** And the “effect on platelet aggregation induced by ADP” value (from here on “effect … by ADP”) [8]?
**A.** inhibit platelet aggregation induced by ADP

**Q.** What about the “effect on platelet aggregation” value ([8]; safe systemic concentrations (e.g. ≤6 micrograms/ml)) of the same compound?
**A.** no effect on platelet aggregation

**Q.** What about the “reactive oxygen species (ROS) production by human neutrophils” value (human neutrophils; concentrations 100-fold higher than safe serum lidocaine concentrations (≤5 μg/ml)) of the same compound?
**A.** effectively reduced reactive oxygen species (ROS) production

**Q.** And the “effect on ROS” value (human neutrophils; therapeutic serum lidocaine concentrations)?
**A.** no effect on ROS

**Q.** And the “dosage limitation approved by the FDA for infiltration local anesthesia” value [9]?
**A.** 7 mg/kg

**Q.** With `Cc1ncc([N+](=O)[O-])n1CCO` [Metronidazole] as the compound, how does the “Cmax in subcutaneous TISF after TAD+IVAD relative to serum after IVAD alone” value ([6]; 600 mg as TAD (400 mg) + IVAD (200 mg) vs 600 mg IVAD alone) read?
**A.** 10 times

**Q.** What about the “Cmax in TISF after TAD relative to Cmax in serum after IVAD” value ([6]; TAD 500 mg vs IVAD 500 mg) of the same compound?
**A.** 24.7 times

**Q.** And the AUC [6, 10]?
**A.** 1032 µg·h/mL

**Q.** And the Cmax [6, 10]?
**A.** 160000 ng/mL

**Q.** What about the AUC [6, 11] of the same compound?
**A.** 81 µg·h/mL

**Q.** What about the Cmax [6, 11] of the same compound?
**A.** 4800 ng/mL

**Q.** And the AUC ([6]; serum, IVAD, dose 600 mg)?
**A.** 127 µg·h/mL

**Q.** What about the Cmax ([6]; serum, IVAD, dose 600 mg) of the same compound?
**A.** 14000 ng/mL

**Q.** And the “adverse local or systemic effects” value [6]?
**A.** no adverse local or systemic effects

**Q.** And the “concentration-time profiles of cefazolin and metronidazole in TISF after TAD compared” value ([6]; equal mg doses and equal mg/L concentrations in the TAD solution)?
**A.** identical

**Q.** What about the “initial period in which serum concentrations were greater after IVAD than after TAD; beyond it TAD greater” value ([6]; serum) of the same compound?
**A.** 10 h

**Q.** What about the “chemically stable for” value [4] of the same compound?
**A.** at least 72 hours

**Q.** With `CCOC(=O)c1ccc(N)cc1` [benzocaine] as the compound, how does the “effect … by ADP” value [8] read?
**A.** inhibit platelet aggregation induced by ADP

**Q.** Which “effect … by ADP” value [8] does the source give for `CCCCN1CCCCC1C(=O)Nc1c(C)cccc1C` (stereo not shown) [bupivacaine] here?
**A.** inhibit platelet aggregation induced by ADP

**Q.** Which “clinically significant adverse effects of subcutaneous injection in a dilute tumescent solution” value ([1]; conclusion) does the source give for Gentamicin here?
**A.** without any clinically significant adverse effects

**Q.** What about the ecchymosis [1] of the same compound?
**A.** no ecchymosis

**Q.** What about the “local tenderness upon palpation” value [1] of the same compound?
**A.** no local tenderness upon palpation

**Q.** And the stinging upon injection [1]?
**A.** no stinging upon injection
